Results as given in US20240043420A1, “7-AZAINDOLE COMPOUNDS FOR INHIBITION OF BCR-ABL TYROSINE KINASES” (EnLiven Therapeutics, Inc., priority 2020, published 2024).

Key:
K562 cells = assay: K562 cell proliferation assay (CellTiter-Glo); type: cell-based; conditions: Homo sapiens, K562, 72 h, CellTiter-Glo viability, read-out: Cell Line (IC50, nM) K562
Outline: (§1)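 Cells in IMDM/10% FBS seeded at 2,000 (K562) or 1,500 (HL60) per well, exposed to serially diluted compounds for 72 h at 37 °C, 5% CO2. Viability by CellTiter-Glo luminescence, normalized between DMSO (high) and cell-free media (low) controls.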

ABL1 = molecular target: T1, ABL1 (Homo sapiens, UniProt P00519); assay: Luminescence-based ABL kinase assay (ADP-Glo, 300 μM ATP); type: biochemical
T1 construct: purchased Carna Biosciences
Outline: (§2)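 Buffer: 50 mM HEPES pH 7.5, 10 mM MgCl2, 1 mM EGTA, 2 mM DTT, 0.05% BSA. Compound preincubated 30 min at RT with kinase (3.325 nM in enzyme solution), then started with a Peptide 2 (6 μM) and ATP (1.2 mM) solution, both stock levels; 90 min at RT.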

pCRKL in K562 cells = assay: pCRKL ELISA assay in K562 cells; type: cell-based; conditions: Homo sapiens, 1.5 h, 90 minutes incubation, read-out: PCRKL ELISA, Cell Line IC50 (nM) K562
Method: (§3) K562 or Ba/F3 ABL T315I cells (2.0*10^5 cells/100 μl/well) were seeded in 96 well (Corning, cat #3799). Compounds were dissolved in DMSO, serially diluted in DMSO and then were added, mixed, and incubated for 90 minutes at 37° C., 5% CO2. Following the 90-minute incubation, plates were centrifuged for 5 min at 3000 RPM and supernatant was removed from each well. Cells were washed 3 times with 150 μl PBS prior to addition of 100 μl cell RIPA lysis buffer (Boston BioProducts, cat #BP-115D) supplied with 1×complete ULTRA cocktail inhibitor (Roche, 05892791001) and 1×PhosSTOP Phosphatase Inhibitor Cocktail Tablets (Roche, 04906837001). Cells were incubated with lysis buffer for 1 hour at 4° C. prior to storage at −80 C.
(§4) A capture antibody able to detect phosphorylated and non-phosphorylated CRKL (R&D Systems, cat #AF5127) was added to Meso Scale Discovery (MSD) standard bind plates (MSD, cat #L15XA-3) at 5 ug/mL and incubated at 4° C. overnight. The next day, plates were washed with PBS+0.05% Tween20 (PBST) and 150 μl of 5% BSA blocking solution was added for 1 hour at room temperature with shaking. Plates were washed with PBST. Lysates were thawed and 30 μl of lysate was added to the MSD plates and incubated for 2 hours at room temperature with shaking. MSD plates were washed with PBST and 30 μl of a detection antibody that binds phosphorylated pCRKL (R&D Systems, cat #MAB6910) was added at 1 μg/mL to each well. Plates were incubated for 1 hour at room temperature with shaking. Plates were washed with PBST prior to addition of 30 μl of a sulfo tagged goat anti mouse detection antibody (MSD cat #R32AC-1). Plates were incubated for 1 hour at room temperature with shaking. Plates were washed with PBST prior to addition of 150 ul of 1×MSD read buffer T (MSD, cat 4R92TC-2). Electrochemiluminescence (ECLU) was read on an MSD plate reader (Meso Scale Discovery). The remaining activity by calculated as follows: 00 Relative activity=100×(ELCUsample−ECLULC)/(ECLUHC−ECLULC). The low and high controls (LC/HC) are generated from lysate from wells without cells or with cells treated with 0.1% DMSO, respectively. IC50 values were calculated using XLFit software using a nonlinear regression model with a sigmoidal dose response and are shown in Table 4 and Table 5 below.

[1] = tested on: pCRKL in Ba/F3 ABL1 (T315I) cells; assay: pCRKL ELISA assay in Ba/F3 ABL T315I cells; type: cell-based; conditions: Mus musculus, BaF3, 1.5 h, 90 minutes incubation, read-out: pCRKL ELISA, Cell Line IC50 (nM) Ba/F3 ABL1 (T315I)
Method: as §3, §4

ABL1 (T315I) = ABL1 (T315I) (Homo sapiens, UniProt P00519, T315I); assay: Luminescence-based ABL kinase assay (ADP-Glo, 300 μM ATP), T315I mutant; type: biochemical
Outline: as §2

HL60 cells = assay: HL60 cell proliferation assay (CellTiter-Glo); type: cell-based; conditions: Homo sapiens, HL-60, 72 h, CellTiter-Glo viability, read-out: Cell Line (IC50, nM) HL60
Outline: as §1

SMILES	IC50 (K562 cells) [nM]	IC50 (ABL1) [nM]	IC50 (pCRKL in K562 cells) [nM]	IC50 [1] [nM]	IC50 (ABL1 (T315I)) [nM]	IC50 (HL60 cells) [nM]
COc1cccc(OC)c1-c1c[nH]c2nc(NC(=O)C3CC3CN3CCNCC3)ccc12 (single isomer, unassigned) [Example S150, Enantiomer 1, N-[3-(2,6-dimethoxyphenyl)-1H-pyrrolo[2,3-b]pyridin-6-yl]-2-(piperazin-1-ylmethyl)cyclopropane-1-carboxamide]	40.5	5.42	453	1460	1.73	–
COc1ncccc1-c1c[nH]c2nc(NC(=O)[C@@H]3C[C@@H]3F)ccc12 [Compound 27, (1S,2S)-2-fluoro-N-(3-(2-methoxypyridin-3-yl)-1H-pyrrolo[2,3-b]pyridin-6-yl)cyclopropane-1-carboxamide]	156	29	164	183	20.2	> 10000
COc1ccccc1-c1n[nH]c2nc(NC(=O)[C@@H]3C[C@@H]3F)ccc12 [Compound 54, (1S,2S)-2-fluoro-N-[3-(2-methoxyphenyl)-1H-pyrazolo[3,4-b]pyridin-6-yl]cyclopropane-1-carboxamide]	88.4	14.3	95.8	198	16.3	> 10000
COc1ccnc(OC)c1-c1c[nH]c2nc(NC(=O)[C@@H]3C[C@@H]3F)ccc12 [Compound 75, (1S,2S)—N-[3-(2,4-dimethoxypyridin-3-yl)-1H-pyrrolo[2,3-b]pyridin-6-yl]-2-fluorocyclopropane-1-carboxamide]	54.6	15.1	86.3	162	17.6	> 10000
COc1ncc(F)c(OC)c1-c1c[nH]c2nc(NC(=O)[C@@H]3C[C@@H]3F)ccc12 [Compound 76, (1S,2S)-2-fluoro-N-[3-(5-fluoro-2,4-dimethoxypyridin-3-yl)-1H-pyrrolo[2,3-b]pyridin-6-yl]cyclopropane-1-carboxamide]	35.8	5.14	65.4	50.1	7.38	> 10000
COc1cc2ncsc2cc1-c1c[nH]c2nc(NC(=O)[C@@H]3C[C@@H]3F)ccc12 [Compound 86, (1S,2S)-2-fluoro-N-(3-(5-methoxybenzo[d]thiazol-6-yl)-1H-pyrrolo[2,3-b]pyridin-6-yl)cyclopropane-1-carboxamide]	30.5	5.97	–	84.2	5.48	> 10000
COc1c(-c2c[nH]c3nc(NC(=O)[C@@H]4C[C@@H]4F)ccc23)cc(F)c2[nH]cnc12 [Compound 95, (1S,2S)-2-fluoro-N-(3-(7-fluoro-4-methoxy-1H-benzo[d]imidazol-5-yl)-1H-pyrrolo[2,3-b]pyridin-6-yl)cyclopropanecarboxamide]	221	6.32	656	429	2.14	> 10000
COc1ccc(F)cc1-c1n[nH]c2nc(NC(=O)[C@@H]3C[C@@H]3F)ccc12 [Compound 98, (1S,2S)-2-fluoro-N-[3-(5-fluoro-2-methoxyphenyl)-1H-pyrazolo[3,4-b]pyridin-6-yl]cyclopropane-1-carboxamide]	106	16.4	174	241	12.9	> 10000
COc1ncc(F)c(OC)c1-c1c[nH]c2nc(NC(=O)NCCN3CCN(C)CC3)ccc12 [Compound 116, 3-[3-(5-fluoro-2,4-dimethoxypyridin-3-yl)-1H-pyrrolo[2,3-b]pyridin-6-yl]-1-[2-(4-methylpiperazin-1-yl)ethyl]urea]	142	49.4	–	1060	59.3	> 10000
COc1cccc(OC)c1-c1c[nH]c2nc(NC(=O)NCCN3CCN(C)CC3)ccc12 [Compound 117, 3-[3-(2,6-dimethoxyphenyl)-1H-pyrrolo[2,3-b]pyridin-6-yl]-1-[2-(4-methylpiperazin-1-yl)ethyl]urea]	67.1	11.3	–	124	9.08	> 10000
COc1ccc(F)c(OC)c1-c1c[nH]c2nc(NC(=O)NCCN3CCN(C)CC3)ccc12 [Compound 145, 3-[3-(3-fluoro-2,6-dimethoxyphenyl)-1H-pyrrolo[2,3-b]pyridin-6-yl]-1-[2-(4-methylpiperazin-1-yl)ethyl]urea]	120	51.6	399	–	44.3	> 10000
COc1nc2ncsc2cc1-c1c[nH]c2nc(NC(=O)[C@@H]3C[C@@H]3F)ccc12 [Compound 146, (1S,2S)-2-fluoro-N-(3-[5-methoxy-[1,3]thiazolo[4,5-b]pyridin-6-yl]-1H-pyrrolo[2,3-b]pyridin-6-yl)cyclopropane-1-carboxamide]	9.9	3.74	32	112	14	> 10000
COc1cc2ncsc2c(F)c1-c1c[nH]c2nc(NC(=O)[C@@H]3C[C@@H]3F)ccc12 [Compound 147, (1S,2S)-2-fluoro-N-(3-(7-fluoro-5-methoxybenzo[d]thiazol-6-yl)-1H-pyrrolo[2,3-b]pyridin-6-yl)cyclopropane-1-carboxamide]	16.1	5.54	35.7	35.7	1.71	> 10000
